Here are results for two compounds from paper PMC10641818, “Development of First-in-Class Dual Sirt2/HDAC6 Inhibitors as Molecular Tools for Dual Inhibition of Tubulin Deacetylation” (Journal of Medicinal Chemistry, 2023).

In one assay the target is T1, Sirt2 (Homo sapiens, UniProt Q8IXJ6).
T1 construct: the respective sirtuin (Sirt1_134–747, Sirt2_56–356, or Sirt3_118–395) was mixed with; made in house; host or cells: Escherichia coli BL21 Star (DE3)
T1 sequence (Q8IXJ6 56-356): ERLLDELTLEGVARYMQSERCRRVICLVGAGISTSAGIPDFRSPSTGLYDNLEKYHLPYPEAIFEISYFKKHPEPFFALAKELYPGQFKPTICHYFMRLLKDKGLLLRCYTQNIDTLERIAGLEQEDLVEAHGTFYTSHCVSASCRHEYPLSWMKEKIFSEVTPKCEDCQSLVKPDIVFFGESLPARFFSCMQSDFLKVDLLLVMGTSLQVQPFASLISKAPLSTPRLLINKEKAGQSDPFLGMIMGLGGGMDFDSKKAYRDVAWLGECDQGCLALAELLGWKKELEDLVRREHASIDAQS
Put plainly: Sirt2 in vitro deacetylation assay (ZMAL, trypsin-based fluorescence). Format: biochemical. As to conditions: deacetylation, mean ± SD.

For the next assay, the target named is T2, Sirt1 (Homo sapiens, UniProt Q96EB6).
T2 construct: the respective sirtuin (Sirt1_134–747, Sirt2_56–356, or Sirt3_118–395) was mixed with; made in house; host or cells: Escherichia coli BL21 Star (DE3)
T2 sequence (Q96EB6 134-747): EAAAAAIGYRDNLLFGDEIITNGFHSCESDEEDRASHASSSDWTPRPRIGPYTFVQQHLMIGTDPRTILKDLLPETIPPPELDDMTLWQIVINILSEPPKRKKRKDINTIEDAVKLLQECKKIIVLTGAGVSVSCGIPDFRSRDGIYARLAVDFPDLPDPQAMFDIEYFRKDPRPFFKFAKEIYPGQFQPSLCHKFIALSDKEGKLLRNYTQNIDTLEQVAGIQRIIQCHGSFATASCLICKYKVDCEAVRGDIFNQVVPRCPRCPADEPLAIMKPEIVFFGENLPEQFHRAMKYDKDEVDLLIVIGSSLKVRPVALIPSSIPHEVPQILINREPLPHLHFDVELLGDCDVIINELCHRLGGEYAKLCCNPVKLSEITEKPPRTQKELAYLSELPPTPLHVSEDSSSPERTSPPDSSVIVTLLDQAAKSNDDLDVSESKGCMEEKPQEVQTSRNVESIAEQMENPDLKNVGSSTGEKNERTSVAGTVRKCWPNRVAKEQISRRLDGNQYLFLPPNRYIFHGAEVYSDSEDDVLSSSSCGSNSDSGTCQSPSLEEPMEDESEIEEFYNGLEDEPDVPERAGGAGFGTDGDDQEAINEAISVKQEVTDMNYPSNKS
Put plainly: Sirt1 in vitro deacetylation assay (ZMAL). Format: biochemical.

For another assay, the target named is T3, Sirt2 (demyristoylation) (Homo sapiens, UniProt Q8IXJ6).
T3 construct: the respective sirtuin (Sirt1_134–747, Sirt2_56–356, or Sirt3_118–395) was mixed with; made in house; host or cells: Escherichia coli BL21 Star (DE3)
T3 sequence (Q8IXJ6 56-356): T1 sequence (Q8IXJ6 56-356)
Put plainly: Discontinuous Sirt2 demyristoylation assay (ZMML substrate). In kind it is biochemical. Particulars: mean ± SD.

Another assay has as its system α-tubulin acetylation. Put plainly: Immunofluorescence microscopy of α-tubulin acetylation in PC-3M-luc cells. Particulars: 20 μM, 5 h. Format: cell-based. The method, then:
The detection of acetylation levels of α-tubulin by immunofluorescence was performed as previously described.[47] In brief, PC-3M-luc cells (25 000 cells per well) were plated in Ibidi 8-well slides (Ibidi, catalogue no. 80826) and incubated overnight at 37 °C, 5% CO2. Next, cells were treated with 20 μM of inhibitor. After 5 h, the medium was removed and the cells washed with PBS and fixed with 4% PFA for 8–10 min at ambient temperature. Cells were rinsed three times with PBS and lysed with extraction buffer (PBS, 0.1% Triton X-100) for 3–5 min at ambient temperature. After another washing step with PBS, blocking buffer (PBS, 0.1% Triton, 5% FCS) was added for at least 10 min before incubating with monoclonal acetylated α-tubulin antibody (1:500, Sigma-Aldrich, catalogue no. T6793) in blocking buffer overnight at 4 °C. […] The cells were rinsed two times with blocking buffer and once with PBS and DAPI in mounting medium ([…] HardSet Antifade Mounting Medium with DAPI, no. H-1500-10) diluted 1:50 in PBS was added and it was incubated for 10 min in the dark. Confocal microscopy was performed with a Leica SP8 confocal microscope equipped with a 40×/1.40 oil objective (Leica Microsystems) keeping the laser settings of the images constant to allow direct comparison of signal intensities between images.

The next assay has as its system W1 ovarian cancer cells. Put plainly: Cell viability assay (MTT) W1. Format: cell-based. As to conditions: 72 h. The method in brief:
(§1)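 HGC27 and PC-3M-luc cells (2000/well) were read by MTS after compound in 0.5% DMSO. W1 (10^4/well) and MCF-7 (2 × 10^3/well) were given half-log dilutions for 72 h, then MTT for 1 h, with absorbance at 570 nm minus 690 nm. Viability was fitted to a four-parameter logistic curve.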

Assay [1] relates to PC-3M-luc prostate cancer cells. Put plainly: Cell viability assay (MTS) PC-3M-luc. In kind it is cell-based. Particulars: 72 h. The method in brief: as §1
For another assay, the target named is HDAC9 (Homo sapiens, UniProt Q9UKV0). Put plainly: HDAC9 continuous fluorescence deacylation assay. In kind it is biochemical.
HDAC9, sequence (Q9UKV0 whole entry, species assumed): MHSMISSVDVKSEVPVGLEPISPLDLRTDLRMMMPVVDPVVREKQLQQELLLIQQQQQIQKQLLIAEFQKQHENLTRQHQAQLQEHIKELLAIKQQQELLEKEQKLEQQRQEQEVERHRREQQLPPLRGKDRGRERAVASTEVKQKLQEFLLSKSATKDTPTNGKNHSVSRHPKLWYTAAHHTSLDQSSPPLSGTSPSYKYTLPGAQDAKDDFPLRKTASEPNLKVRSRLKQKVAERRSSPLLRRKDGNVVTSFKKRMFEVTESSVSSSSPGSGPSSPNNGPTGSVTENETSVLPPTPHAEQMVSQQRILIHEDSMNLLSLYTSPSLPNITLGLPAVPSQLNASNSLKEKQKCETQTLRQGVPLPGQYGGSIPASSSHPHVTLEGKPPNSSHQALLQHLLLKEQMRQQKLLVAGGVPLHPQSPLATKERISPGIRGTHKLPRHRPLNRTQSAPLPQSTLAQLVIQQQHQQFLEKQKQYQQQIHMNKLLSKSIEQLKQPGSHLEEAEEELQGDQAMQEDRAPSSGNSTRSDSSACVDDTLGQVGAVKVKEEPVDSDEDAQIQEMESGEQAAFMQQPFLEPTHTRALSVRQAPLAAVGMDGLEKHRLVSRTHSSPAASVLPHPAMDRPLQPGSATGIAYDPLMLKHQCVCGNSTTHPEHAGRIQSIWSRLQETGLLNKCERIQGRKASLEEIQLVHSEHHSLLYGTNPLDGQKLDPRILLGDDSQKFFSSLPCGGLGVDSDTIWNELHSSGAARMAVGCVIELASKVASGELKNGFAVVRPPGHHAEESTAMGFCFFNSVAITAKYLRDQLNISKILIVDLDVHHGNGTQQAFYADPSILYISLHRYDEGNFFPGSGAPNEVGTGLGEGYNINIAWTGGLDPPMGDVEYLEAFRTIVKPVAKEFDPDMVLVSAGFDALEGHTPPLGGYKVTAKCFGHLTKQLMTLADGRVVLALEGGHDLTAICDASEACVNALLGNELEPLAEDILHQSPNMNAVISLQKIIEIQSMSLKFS

With `Cc1cc(C)nc(SCC(=O)Nc2ncc(Cc3cccc(OCc4cn(Cc5ccccc5)nn4)c3)s2)n1` [Compound 4, SirReal1.1, reference compound], the IC50 against Sirt2 was 0.22 ± 0.01 µM; against Sirt2 (demyristoylation), 1.4 ± 0.3 µM. On Sirt1, this compound returned an inhibition at 20 µM of less than 15%. In the assay with α-tubulin acetylation, the “α-tubulin acetylation (immunofluorescence)” value is “very minor”. The inhibition at 100 µM with W1 ovarian cancer cells (@ 0.1 mM, read-out: W1 percentual inhibition) amounted to 3%. In addition, the PC-3M-luc cellular effect result in assay [1] (@ 50 μM) is reported as “ni ^b (ni = no inhibition (cellular effect <20% @ 50 μM))”.

Regarding `CCCCN(Cc1ccc(C(=O)NO)cc1)C(=O)CCCCn1cc(COc2cccc(Cc3cnc(NC(=O)CSc4nc(C)cc(C)n4)s3)c2)nn1` [Compound 33, 4-((N-Butyl-5-(4-((3-((2-(2-((4,6-dimethylpyrimidin-2-yl)thio)acetamido)thiazol-5-yl)methyl)phenoxy)methyl)-1H-1,2,3-triazol-1-yl)pentanamido)methyl)-N-hydroxybenzamide], the 50% inhibitory concentration (IC50) is 0.32 ± 0.11 µM against Sirt2, 9.7 ± 1.3 µM against Sirt2 (demyristoylation) and more than 20 µM at HDAC9. Further, the inhibition at 20 µM at Sirt1 was less than 15%; at HDAC9 (@ 20 μM, read-out: HDAC9 percentual inhibition) it was 37%. Also, the inhibition at 6 µM on HDAC9 (@ 6 µM, read-out: HDAC9 percentual inhibition) amounted to 17%. The “α-tubulin acetylation (immunofluorescence)” value in the assay with α-tubulin acetylation is on record as “the increase in tubulin hyperacetylation was especially pronounced”. Besides, the EC50 with W1 ovarian cancer cells (MTT, mean ± SD) was determined as 19.2 ± 1.3 µM; in assay [1] (PC-3M-luc, read-out: PC-3M-luc cell viability EC50, MTS, mean ± SD), 30.1 ± 3.8 µM.
